Experimental data as given in patent publication US7884136B2, “Modified-release formulations of a bupropion salt” (Biovail Laboratories International S.R.L., priority 2005, dated 2011).

Experiment: Accelerated stability study of bupropion HBr, closed bottles, 40° C./75% RH, 3 and 6 months, HPLC
Type: physicochemical
Conditions: 40° C., R.H. 75%; for Chromatographic purity B) (HPLC) 4) 2-N-(tert-Butyl)-aminopropiophenone / Chromatographic purity B) (HPLC) 5) single unknown impurity (each): LOQ 0.02%, LOD 0.002%; for Chromatographic purity A) (HPLC) 1) 3′-Chloropropiophenone / Chromatographic purity A) (HPLC) 3) 3′-Chlorobenzoic acid / Chromatographic purity A) (HPLC) 2) 3′-Chloro-2-bromopropiophenone: LOQ 0.05%; for Chromatographic purity A) (HPLC) 1) 3′-Chloropropiophenone / Chromatographic purity A) (HPLC) 3) 3′-Chlorobenzoic acid: LOD 0.01%; for Chromatographic purity A) (HPLC) 2) 3′-Chloro-2-bromopropiophenone: LOD 0.04%
Experimental: The samples were prepared in closed bottles and placed in the stability chamber. HPLC analysis was conducted on the samples prior to placing them in the stability chamber (time 0), and after 3 months and 6 months. The amounts of the main degradation products present at time 0 were compared with those amounts present after 3 months and 6 months. […] For each sample tested, at each time period, two different HPLC assays were run. The first assay labelled chromatographic purity A, measured the percentage of three impurities 3′chloropropiophenone, 3′-Chloro-2-bromopropiophenone and 3′-Chlorobenzoic acid. The second assay, labelled chromatographic purity B, measured the percentage of 2-N-(tert-Butyl)-aminopropiophenone, a single unknown impurity and the total unknown impurities.

Which “Assay (HPLC)” value (Batch D00894, 3 month) does the source give for Br.CC(NC(C)(C)C)C(=O)c1cccc(Cl)c1 (stereo not drawn) [Bupropion•HBr] here?
Its value is 99.6 % on d.b.

What about the “Chromatographic purity (HPLC: A + B) Total impurities” value (Batch D00894, 3 month) of the same compound?
Its value is 0.1%.

And the “Chromatographic purity B) (HPLC) 6) total unknown impurities” value (Batch D00894, 3 month)?
The value was 6) 0.06%.

And the “Description (white or almost white crystalline powder)” value (“Description” below) (Batch D00894, 3 month)?
The value was “conform”.

What about the “Identification IR, HPLC” value (Batch D00894, 3 month) of the same compound?
The value was “positive”.

What about the “Water content (K.F.)” value (Batch D00894, 3 month) of the same compound?
Its value is 0.07%.

What about the “Chromatographic purity B) (HPLC) 4) 2-N-(tert-Butyl)-aminopropiophenone” value (Batch D00894, 3 month) of the same compound?
The value was 4) 0.03%.

And the “Chromatographic purity B) (HPLC) 5) single unknown impurity (each)” value (Batch D00894, 3 month)?
Its value is 5) 0.04%.

And the “Chromatographic purity A) (HPLC) 1) 3′-Chloropropiophenone” value (Batch D00894, 3 month)?
Its value is 1) n.q.

And the “Chromatographic purity A) (HPLC) 3) 3′-Chlorobenzoic acid” value (Batch D00894, 3 month)?
Its value is 3) n.q.

And the “Chromatographic purity A) (HPLC) 2) 3′-Chloro-2-bromopropiophenone” value (Batch D00894, 3 month)?
Its value is 2) n.d.

What about the “Assay (HPLC)” value (Batch D00894, 6 months) of the same compound?
The value was 99.7 % on d.b.

And the “Chromatographic purity (HPLC: A + B) Total impurities” value (Batch D00894, 6 months)?
Its value is 0.1%.

And the “Chromatographic purity B) (HPLC) 6) total unknown impurities” value (Batch D00894, 6 months)?
Its value is 6) 0.02%.

And the “Description” value (Batch D00894, 6 months)?
The value was “conform”.

What about the “Identification IR, HPLC” value (Batch D00894, 6 months) of the same compound?
The value was “positive”.

What about the “Water content (K.F.)” value (Batch D00894, 6 months) of the same compound?
The value was 0.08%.

And the “Chromatographic purity B) (HPLC) 4) 2-N-(tert-Butyl)-aminopropiophenone” value (Batch D00894, 6 months)?
The value was 4) 0.04%.

What about the “Chromatographic purity B) (HPLC) 5) single unknown impurity (each)” value (Batch D00894, 6 months) of the same compound?
The value was 5) n.q.

And the “Chromatographic purity A) (HPLC) 1) 3′-Chloropropiophenone” value (Batch D00894, 6 months)?
Its value is 1) 0.05%.

And the “Chromatographic purity A) (HPLC) 3) 3′-Chlorobenzoic acid” value (Batch D00894, 6 months)?
The value was 3) n.q.

And the “Chromatographic purity A) (HPLC) 2) 3′-Chloro-2-bromopropiophenone” value (Batch D00894, 6 months)?
Its value is 2) n.d.

What about the “Assay (HPLC)” value (Batch D00894, time 0) of the same compound?
Its value is 99.6 % on d.b.

And the “Chromatographic purity (HPLC: A + B) Total impurities” value (Batch D00894, time 0)?
Its value is 0.1%.

And the “Chromatographic purity B) (HPLC) 6) total unknown impurities” value (Batch D00894, time 0)?
The value was 6) 0.04%.

And the “Description” value (Batch D00894, time 0)?
Its value is “conform”.

And the “Identification IR, HPLC” value (Batch D00894, time 0)?
The value was “positive”.

What about the “Water content (K.F.)” value (Batch D00894, time 0) of the same compound?
Its value is 0.05%.

And the “Chromatographic purity B) (HPLC) 4) 2-N-(tert-Butyl)-aminopropiophenone” value (Batch D00894, time 0)?
Its value is 4) 0.04%.

What about the “Chromatographic purity B) (HPLC) 5) single unknown impurity (each)” value (Batch D00894, time 0) of the same compound?
Its value is 5) 0.04%.

And the “Chromatographic purity A) (HPLC) 1) 3′-Chloropropiophenone” value (Batch D00894, time 0)?
The value was 1) n.d.

And the “Chromatographic purity A) (HPLC) 3) 3′-Chlorobenzoic acid” value (Batch D00894, time 0)?
Its value is 3) n.q.

And the “Chromatographic purity A) (HPLC) 2) 3′-Chloro-2-bromopropiophenone” value (Batch D00894, time 0)?
The value was 2) n.d.

And the “Assay (HPLC)” value (Batch D00895, 3 month)?
Its value is 100.7 % on d.b.

And the “Chromatographic purity (HPLC: A + B) Total impurities” value (Batch D00895, 3 month)?
Its value is 0.1%.

And the “Chromatographic purity B) (HPLC) 6) total unknown impurities” value (Batch D00895, 3 month)?
The value was 6) 0.05%.

What about the “Description” value (Batch D00895, 3 month) of the same compound?
The value was “conform”.

And the “Identification IR, HPLC” value (Batch D00895, 3 month)?
The value was “positive”.

And the “Water content (K.F.)” value (Batch D00895, 3 month)?
The value was 0.07%.

What about the “Chromatographic purity B) (HPLC) 4) 2-N-(tert-Butyl)-aminopropiophenone” value (Batch D00895, 3 month) of the same compound?
The value was 4) 0.03%.

And the “Chromatographic purity B) (HPLC) 5) single unknown impurity (each)” value (Batch D00895, 3 month)?
Its value is 5) 0.04%.

And the “Chromatographic purity A) (HPLC) 1) 3′-Chloropropiophenone” value (Batch D00895, 3 month)?
The value was 1) n.q.

And the “Chromatographic purity A) (HPLC) 3) 3′-Chlorobenzoic acid” value (Batch D00895, 3 month)?
The value was 3) 0.05%.

What about the “Chromatographic purity A) (HPLC) 2) 3′-Chloro-2-bromopropiophenone” value (Batch D00895, 3 month) of the same compound?
The value was 2) n.d.

And the “Assay (HPLC)” value (Batch D00895, 6 months)?
Its value is 99.7 % on d.b.

And the “Chromatographic purity (HPLC: A + B) Total impurities” value (Batch D00895, 6 months)?
Its value is 0.1%.

And the “Chromatographic purity B) (HPLC) 6) total unknown impurities” value (Batch D00895, 6 months)?
The value was 6) 0.02%.

What about the “Description” value (Batch D00895, 6 months) of the same compound?
Its value is “conform”.

What about the “Identification IR, HPLC” value (Batch D00895, 6 months) of the same compound?
The value was “positive”.

And the “Water content (K.F.)” value (Batch D00895, 6 months)?
The value was 0.07%.

And the “Chromatographic purity B) (HPLC) 4) 2-N-(tert-Butyl)-aminopropiophenone” value (Batch D00895, 6 months)?
Its value is 4) 0.04%.

And the “Chromatographic purity B) (HPLC) 5) single unknown impurity (each)” value (Batch D00895, 6 months)?
The value was 5) n.q.

What about the “Chromatographic purity A) (HPLC) 1) 3′-Chloropropiophenone” value (Batch D00895, 6 months) of the same compound?
The value was 1) 0.05%.

What about the “Chromatographic purity A) (HPLC) 3) 3′-Chlorobenzoic acid” value (Batch D00895, 6 months) of the same compound?
Its value is 3) n.q.

And the “Chromatographic purity A) (HPLC) 2) 3′-Chloro-2-bromopropiophenone” value (Batch D00895, 6 months)?
Its value is 2) n.d.

What about the “Assay (HPLC)” value (Batch D00895, time 0) of the same compound?
The value was 99.2 % on d.b.

What about the “Chromatographic purity (HPLC: A + B) Total impurities” value (Batch D00895, time 0) of the same compound?
Its value is 0.1%.

And the “Chromatographic purity B) (HPLC) 6) total unknown impurities” value (Batch D00895, time 0)?
Its value is 6) 0.04%.

What about the “Description” value (Batch D00895, time 0) of the same compound?
Its value is “conform”.

And the “Identification IR, HPLC” value (Batch D00895, time 0)?
The value was “positive”.

What about the “Water content (K.F.)” value (Batch D00895, time 0) of the same compound?
Its value is 0.04%.

And the “Chromatographic purity B) (HPLC) 4) 2-N-(tert-Butyl)-aminopropiophenone” value (Batch D00895, time 0)?
Its value is 4) 0.04%.

And the “Chromatographic purity B) (HPLC) 5) single unknown impurity (each)” value (Batch D00895, time 0)?
Its value is 5) 0.04%.

What about the “Chromatographic purity A) (HPLC) 1) 3′-Chloropropiophenone” value (Batch D00895, time 0) of the same compound?
Its value is 1) n.d.

What about the “Chromatographic purity A) (HPLC) 3) 3′-Chlorobenzoic acid” value (Batch D00895, time 0) of the same compound?
Its value is 3) n.q.

What about the “Chromatographic purity A) (HPLC) 2) 3′-Chloro-2-bromopropiophenone” value (Batch D00895, time 0) of the same compound?
The value was 2) n.d.
